The target in assay [1] is LCAT (Homo sapiens (Human), UniProt P04180). Briefly: LCAT activity measurement (in vitro), HDL3 fraction from human plasma as enzyme source and acceptor. Type of assay: biochemical. Conditions: HDL3 1 mg/mL from plasma of a healthy person, [14C]cholesterol, 37° C., approximately 16 hours; read-out: EC50 of LCAT activation. The procedure:
A fraction composed of HDL3 (1.125<specific gravity <1.210 g/mL) was obtained from the plasma of a healthy person by density gradient centrifugation. The obtained fraction was dialyzed against phosphate-buffered saline (pH 7.4) and used as an enzyme source and an acceptor for LCAT. Each test drug was prepared by dissolution in dimethyl sulfoxide. [^14C]Cholesterol containing DTNB (Ellman's reagent, final concentration: 0.5 mM), mercaptoethanol (final concentration: 12.5 mM), and 0.6% bovine serum albumin was added to phosphate-buffered saline (pH 7.4) containing 1 mg/mL HDL3, and the test drug was further added thereto at varying concentrations to adjust the whole amount to 80 μL. This mixture was incubated at 37° C. for approximately 16 hours. Then, a mixed solution of hexane and isopropanol (mixing ratio=3:2) was added thereto to stop the reaction. After stirring, the hexane layer was collected, and this layer was evaporated to dryness. […] The radioactivity of a portion corresponding to cholesterol oleate was measured using an imaging analyzer BAS-2500 (manufactured by Fujifilm Corp.). […] The EC50 value of LCAT activation was calculated according to the expression given below relative to the LCAT activity in the sample non-supplemented with the test drug. […]

For assay [2], the system named is cynomolgus monkey. Briefly: Drug efficacy test in cynomolgus monkeys (plasma HDL cholesterol). Type of assay: in vivo. The settings on record: oral, single dose of 10 mg/kg, from AUC before administration and 24 hours after administration. As to the method: Each test drug was dissolved in a propylene glycol (Sigma-Aldrich Corp.)-Tween 80 (Sigma-Aldrich Corp.) mixed solution [4/1 (v/v)] or a 0.5% (w/v) methylcellulose aqueous solution, and the solution was orally administered to a cynomolgus monkey for 1 or 7 days. At 1 or 7 day of administration period, blood was collected before administration and after administration, and plasma was obtained. The content of cholesterol in the plasma was measured using a commercially available assay kit (Cholesterol-E Wako, Wako Pure Chemical Industries, Ltd.). The lipoprotein profile was analyzed by HPLC (column: LipopropakXL, manufactured by Tosoh Corp.). The contents of HDL cholesterol and non-HDL cholesterol were calculated according to the following calculation expression: Content of HDL cholesterol=Content of cholesterol in the plasma×(Peak area of HDL cholesterol/Total sum of peaks) Content of non-HDL cholesterol=Content of cholesterol in the plasma×(Peak area of non-HDL cholesterol/Total sum of peaks)
The rate (%) of increase in HDL level after the administration of a single dose of 10 mg/kg compared with before administration was determined from the AUC before administration and 24 hours after administration.

Molecules are shown by their SMILES. pEC50: −log10 of the molar value.

Chain of LCAT (P04180 25-440): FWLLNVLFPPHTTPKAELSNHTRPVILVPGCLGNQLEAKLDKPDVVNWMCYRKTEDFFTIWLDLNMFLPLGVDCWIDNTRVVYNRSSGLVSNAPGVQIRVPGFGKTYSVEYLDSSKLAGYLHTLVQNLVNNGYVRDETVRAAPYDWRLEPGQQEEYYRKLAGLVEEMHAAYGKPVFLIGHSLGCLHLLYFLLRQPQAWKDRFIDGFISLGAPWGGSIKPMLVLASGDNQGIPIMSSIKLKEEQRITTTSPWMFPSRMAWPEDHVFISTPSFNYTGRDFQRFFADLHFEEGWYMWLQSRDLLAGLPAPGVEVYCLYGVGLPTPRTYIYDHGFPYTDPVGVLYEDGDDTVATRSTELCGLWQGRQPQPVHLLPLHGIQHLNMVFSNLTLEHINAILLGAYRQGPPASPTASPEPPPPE

The term pEC50 denotes the negative decadic logarithm of the EC50, by convention in mol/L. Regarding `O=C1Nc2[nH]nc(C3CCN(c4cnc(C(F)(F)F)cn4)CC3)c2C(O)(C(F)(F)F)C1O` (single isomer, unassigned; (+)) [Example 1(4), (+)-4,5-Dihydroxy-4-(trifluoromethyl)-3-{1-[5-(trifluoromethyl)pyrazin-2-yl]piperidin-4-yl}-1,4,5,7-tetrahydro-6H-pyrazolo[3,4-b]pyridin-6-one], the negative-log EC50 (pEC50) in assay [1] was 8.40. Also, in assay [2], the “Rate of increase in HDL level after administration of single dose” value amounted to 590%.
Take `O=C1Nc2[nH]nc(C3CCN(c4cnc(C(F)(F)F)nc4)CC3)c2[C@@H](C(F)(F)F)[C@H]1O` [Example 6(4), (+)-cis-5-Hydroxy-4-(trifluoromethyl)-3-{1-[2-(trifluoromethyl)pyrimidin-5-yl]piperidin-4-yl}-1,4,5,7-tetrahydro-6H-pyrazolo[3,4-b]pyridin-6-one]: the pEC50 in assay [1] is 7.74. Further, in assay [2], the “Rate of increase in HDL level after administration of single dose” value worked out at 483%.

The record behind these values is patent US10138240B2, “Crystal of 5-hydroxy-4-(trifluoromethyl)pyrazolopyridine derivative” (Daiichi Sankyo Company, Limited, priority 2015, dated 2018).
